biological target: T1, Adenosine deaminase (Bos taurus, UniProt P56658); test: Inhibition of bovine adenosine deaminase pre-incubated for 5 mins before adenosine addition; settings: read-out: Ki
T1 sequence (P56658 whole entry): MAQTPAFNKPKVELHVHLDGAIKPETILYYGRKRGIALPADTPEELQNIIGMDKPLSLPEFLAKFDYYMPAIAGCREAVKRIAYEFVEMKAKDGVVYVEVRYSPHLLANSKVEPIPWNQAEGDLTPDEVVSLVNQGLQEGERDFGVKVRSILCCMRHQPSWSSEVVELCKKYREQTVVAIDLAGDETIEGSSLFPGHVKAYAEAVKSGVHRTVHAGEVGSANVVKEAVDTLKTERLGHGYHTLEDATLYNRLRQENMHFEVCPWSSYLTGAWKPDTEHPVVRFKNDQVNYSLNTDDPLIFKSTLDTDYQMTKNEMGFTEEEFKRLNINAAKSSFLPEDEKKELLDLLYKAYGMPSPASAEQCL

Row | Structure (SMILES) | Ki [nM]
1 | C[C@H](O)[C@@H](CCc1cccc(Br)c1)n1cnc2c(N)ncnc21 | 0.6
2 | C[C@H](O)[C@@H](CCc1cccc(C(=O)N2CCCC2)c1)n1cnc2c(N)ncnc21 | 2.2
3 | C[C@H](O)[C@@H](CCc1cccc(C(=O)NC2CCCC2)c1)n1cnc2c(N)ncnc21 | 1.8
4 | C[C@H](O)[C@@H](CCc1cccc(C(=O)O)c1)n1cnc2c(N)ncnc21 | 53
5 | Cc1ccccc1SC[C@H]([C@H](C)O)n1cnc2c(N)ncnc21 | 66
6 | Cc1cccc(SC[C@H]([C@H](C)O)n2cnc3c(N)ncnc32)c1 | 49
7 | C[C@H](O)[C@@H](CCc1cccc(F)c1)n1cnc2c(N)ncnc21 | 1.6
8 | CC(C)(O)[C@@H](CCc1ccc(C(F)(F)F)cc1)n1cnc2c(N)ncnc21 | 69
9 | C[C@H](O)[C@@H](CSc1ccccc1)n1cnc2c(N)ncnc21 | 135
10 | C[C@H](O)[C@@H](CCc1cccc(C(N)=O)c1)n1cnc2c(N)ncnc21 | 2.9
11 | C[C@H](O)[C@@H](CCc1ccccc1C(F)(F)F)n1cnc2c(N)ncnc21 | 6.2
12 | C[C@H](O)[C@@H](CCc1ccc(C(F)(F)F)cc1)n1cnc(C(N)=O)c1 | 29
13 | C[C@H](O)[C@@H](CCc1cccc(C(=O)N(C)C)c1)n1cnc2c(N)ncnc21 | 1.8
14 | C[C@H](O)[C@@H](CCc1cccc(CO)c1)n1cnc2c(N)ncnc21 | 4.6

Source: ChEMBL document CHEMBL4177582, “Modifications of flexible nonyl chain and nucleobase head group of (+)-erythro-9-(2's-hydroxy-3's-nonyl)adenine [(+)-EHNA] as adenosine deaminase inhibitors” (Bioorg Med Chem, 2017)
